pEC50: −log10 of the molar value.
Biological target: Growth hormone secretagogue receptor type 1 (Homo sapiens, UniProt Q92847)
Test: Determination of Human GHSR Agonist Activity
Source text: This method was used to determine the agonism effect of the compound of the invention on the activity of human GHSR protein expressed in human GHSR/CHO stable cell line.

Sequence of Growth hormone secretagogue receptor type 1 (Q92847 whole entry): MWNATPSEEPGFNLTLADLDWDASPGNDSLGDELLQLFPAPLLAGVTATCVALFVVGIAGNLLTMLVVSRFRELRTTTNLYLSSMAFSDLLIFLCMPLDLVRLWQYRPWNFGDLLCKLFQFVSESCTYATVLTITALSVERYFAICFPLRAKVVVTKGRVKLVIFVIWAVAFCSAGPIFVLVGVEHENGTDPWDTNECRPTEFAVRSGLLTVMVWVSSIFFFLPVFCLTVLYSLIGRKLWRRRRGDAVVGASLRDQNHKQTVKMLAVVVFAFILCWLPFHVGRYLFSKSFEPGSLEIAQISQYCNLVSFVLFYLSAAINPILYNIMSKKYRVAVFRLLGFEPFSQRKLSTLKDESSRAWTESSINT

Row | Compound | pEC50
1 | CC(C)(NC(=O)[C@@H](N)CCC(N)=O)C(=O)N[C@H](COCc1ccccc1)C(=O)N1CCC2(CC1)CN(S(C)(=O)=O)c1ccccc12 [US20240190875, Example 1] | 7.81
2 | CC(C)C(=O)OCOC(=O)NC(C)(C)C(=O)N[C@H](COCc1ccccc1)C(=O)N1CCC2(CC1)CN(S(C)(=O)=O)c1ccccc12 [US20240190875, Example 15] | 8.37
3 | CC(=O)/C=C(/C)NC(C)(C)C(=O)N[C@H](COCc1ccccc1)C(=O)N1CCC2(CC1)CN(S(C)(=O)=O)c1ccccc12 [US20240190875, Example 19] | 7.61
4 | C[n+]1cccc(C(=O)NC(C)(C)C(=O)N[C@H](COCc2ccccc2)C(=O)N2CCC3(CC2)CN(S(C)(=O)=O)c2ccccc23)c1 [US20240190875, Example 18] | 7.82
5 | CC(C)(C)C(=O)OCOC(=O)NC(C)(C)C(=O)N[C@H](COCc1ccccc1)C(=O)N1CCC2(CC1)CN(S(C)(=O)=O)c1ccccc12 [US20240190875, Example 21] | 7.74
6 | CC(=O)OCOC(=O)NC(C)(C)C(=O)N[C@H](COCc1ccccc1)C(=O)N1CCC2(CC1)CN(S(C)(=O)=O)c1ccccc12 [US20240190875, Example 22] | 8.03
7 | Cc1oc(=O)oc1COC(=O)NC(C)(C)C(=O)N[C@H](COCc1ccccc1)C(=O)N1CCC2(CC1)CN(S(C)(=O)=O)c1ccccc12 [US20240190875, Example 17] | 7.61
8 | CC(C)(NC(=O)CN)C(=O)N[C@H](COCc1ccccc1)C(=O)N1CCC2(CC1)CN(S(C)(=O)=O)c1ccccc12 [US20240190875, Example 16] | 8.01

— BindingDB's records for patent US20240190875 (Changchun Genescience Pharmaceutical Co., 2024)
